The test system of one experiment is TNFα. The experiment can be described thus: TNFα expression. Type of experiment: cell-based. From the text:
Accordingly, in a further embodiment of the present invention, there is included a method of treating inflammatory diseases comprising administering a TNFα-downregulating effective amount of a compound of the invention to a subject in need thereof. A person skilled in the art would be able to identify TNFα-downregulating compounds of the invention by contacting one or more cells with a compound of the invention and assaying for the presence of one TNFα and comparing the levels of TNFα in the one or more cells with that of controls. Such methods are known in the art and are described in the examples herein below.

The target of a further experiment is T1, 11β-HSD1 (Homo sapiens, UniProt P28845).
T1 construct: expressed in transfected cells
T1 sequence (P28845 whole entry): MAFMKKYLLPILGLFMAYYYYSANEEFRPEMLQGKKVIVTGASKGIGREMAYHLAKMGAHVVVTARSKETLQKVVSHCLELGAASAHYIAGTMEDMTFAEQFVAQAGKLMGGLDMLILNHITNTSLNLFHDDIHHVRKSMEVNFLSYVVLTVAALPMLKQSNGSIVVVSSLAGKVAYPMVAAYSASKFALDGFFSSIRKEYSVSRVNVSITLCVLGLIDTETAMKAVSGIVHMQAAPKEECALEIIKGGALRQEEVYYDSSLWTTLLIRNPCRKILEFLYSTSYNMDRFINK
Nature of the experiment: 11β-HSD1 activity in lysates of stably transfected HEK-293 cells. Conditions: cell lysate. It counts as biochemical. As for the experimental part: (§1) Cell culture media were purchased from Invitrogen, Basel, Switzerland. [1,2,6,7-3H]-cortisol was from Amersham Pharmacia, Dubendorf, Switzerland. [1,2,6,7-3H]-cortisone was produced by incubating 1 mCi of [1,2,6,7-3H]-cortisol with 1 mg of lysate of HEK-293 cells expressing 11β-HSD2 in the presence of 1 mM NAD+. Incubation was for 16 h at 37° C. […] The product was run for a second chromatographic purification step on the same TLC system. […] All other chemicals were from Fluka AG, Buchs, Switzerland and were of the highest grade available.
HEK-293 cells were transfected with the plasmid for expression of carboxy-terminally FLAG-epitope tagged 11β-HSD1 or 11β-HSD2, respectively, that were described previously. […] Non-resistant cells were removed by replacing the cell culture medium every third day for 3 weeks.
For determination of oxidative activity of 11β-HSD enzymes, cells were lysed by sonication and the cell lysate was diluted 1:12 in buffer TS2 (at 4° C.).
(§2) Similarly, reductase activity was measured in a reaction containing NADPH, 30 nCi of [1,2,6,7-3H]-cortisone and unlabeled cortisone, whereby final concentrations were 400 μM NADPH and 10 nM cortisone. […] Activities were determined measuring the conversion of either radiolabeled cortisone or cortisol for 5-20 min using substrate concentrations in the range between 10 nM and 10 μM. 11β-HSD1 activities were measured immediately after cell disruption. […] Results are expressed as mean±S.D. and consist of at least three independent measurements.

For another experiment, the target named is T2, 11β-HSD2 (Homo sapiens, UniProt P80365).
T2 construct: expressed in transfected cells
T2 sequence (P80365 1-405): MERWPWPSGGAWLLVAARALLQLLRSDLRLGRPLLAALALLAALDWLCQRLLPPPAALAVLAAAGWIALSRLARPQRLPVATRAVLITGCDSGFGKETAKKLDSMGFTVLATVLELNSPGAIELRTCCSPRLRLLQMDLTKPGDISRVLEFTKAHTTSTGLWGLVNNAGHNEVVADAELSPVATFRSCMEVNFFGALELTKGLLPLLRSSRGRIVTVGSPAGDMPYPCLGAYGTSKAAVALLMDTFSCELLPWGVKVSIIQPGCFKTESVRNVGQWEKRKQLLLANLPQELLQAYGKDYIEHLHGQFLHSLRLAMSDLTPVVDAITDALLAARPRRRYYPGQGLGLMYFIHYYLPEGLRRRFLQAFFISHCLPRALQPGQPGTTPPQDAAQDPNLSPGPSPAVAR
The experiment can be described thus: 11β-HSD2 activity in lysates of stably transfected HEK-293 cells. Type of experiment: biochemical. The following applies: cell lysate. As for the experimental part: as §1
HEK-293 cells were transfected with the plasmid for expression of carboxy-terminally FLAG-epitope tagged 11β-HSD1 or 11β-HSD2, respectively, that were described previously. […] Non-resistant cells were removed by replacing the cell culture medium every third day for 3 weeks. […]
as §2

The test system of experiment [1] is murine retinal ganglion cells. The following applies: cited from earlier work.
A further experiment concerns CK-2. The following applies: 30 μM GA; cited from earlier work.
A further experiment relates to PKC and CK-I. The following applies: GL (100 μM); cited from earlier work.

Bounds are passed on as bounds.

On to `CC(=O)O[C@H]1CC[C@@]2(C)C(CC[C@]3(C)C2C(=O)C=C2C4C[C@@](C)(C(=O)NO)CC[C@]4(C)CC[C@]23C)C1(C)C` (stereo partly drawn) [Compound 1, (3S,18R,20S)-3-(Acetyloxy)-N-hydroxy-11-oxo-olean-12-en-29-amide], for which, in the experiment on TNFα, the TNFα expression result was “inhibit”.

Consider `CC1(C)C2CC[C@]3(C)C(C(=O)C=C4C5C[C@@](C)(C(=O)NO)CC[C@]5(C)CC[C@]43C)[C@@]2(C)CC[C@@H]1O` (stereo partly drawn) [Compound 2, (3S,18R,20S)-3-Hydroxy-N-hydroxy-11-oxo-olean-12-en-29-amide], for which the inhibition at 1 µM at 11β-HSD1 (Concentration 1000 nmol/L, read-out: Reduction of 11β-HSD1 Activity (%) (average ± standard deviation)) was 46.7 ± 13.8%. For the same compound, the midpoint of inhibition against 11β-HSD1, the IC50, lay at 1.16 µM. Consider `CON[C@H]1CC[C@@]2(C)C(CC[C@]3(C)C2C(=O)C=C2C4C[C@@](C)(C(=O)N(C)O)CC[C@]4(C)CC[C@]23C)C1(C)C` (stereo partly drawn) [Compound 10, (3S,18R,20S)-N-Hydroxy-N-methyl-3-methoxamino-11-dioxo-olean-12-en-29-amide], for which the half-inhibitory concentration (IC50) (in general, the midpoint of a concentration-inhibition curve) against 11β-HSD2 is 0.547 µM; against 11β-HSD1, greater than 40 µM.

As for `CONC(=O)[C@@]1(C)CC[C@]2(C)CC[C@]3(C)C(=CC(=O)C4[C@@]5(C)CC[C@H](O)C(C)(C)C5CC[C@]43C)C2C1` (stereo partly drawn) [Compound 16, (3S,18R,20S)-3-Hydroxy-N-methoxy-11-oxo-olean-12-en-29-amide], the concentration for half-maximal inhibition (IC50) on 11β-HSD2 is 2.13 µM; on 11β-HSD1 it was 0.929 µM.

Consider `CC1(C)[C@@H](O)CC[C@]2(C)[C@H]3C(=O)C=C4[C@@H]5C[C@@](C)(C(=O)O)CC[C@]5(C)CC[C@@]4(C)[C@]3(C)CC[C@@H]12` [GA, Glycyrrhetinic acid], for which, in experiment [1], the postsynaptic light response was 30 % of control. Besides, in the experiment on CK-2, the “phosphorylation of C3α by CK-2” value is “completely inhibited”. As for `CC1(C)[C@@H](O[C@H]2O[C@H](C(=O)O)[C@@H](O)[C@H](O)[C@H]2O[C@@H]2O[C@H](C(=O)O)[C@@H](O)[C@H](O)[C@H]2O)CC[C@]2(C)[C@H]3C(=O)C=C4[C@@H]5C[C@@](C)(C(=O)O)CC[C@]5(C)CC[C@@]4(C)[C@]3(C)CC[C@@H]12` [GL, glycyrrhizin], the “phosphorylation of HMGB1/2 by PKC and CK-I” value in the experiment with PKC and CK-I is recorded as “completely inhibits”.

The values above are taken from patent publication US8476315B2, “N-hydroxy C29-amide derivatives of oleandrane” (Onepharm Research & Development GmbH, priority 2009, dated 2013).
